Molecular target: T1, FLK-1 receptor (Mus musculus, UniProt P35918)
T1 construct: expressed in transfected cells; host or cells: NIH3T3C7#3 cells (FLK-1 infected)
Assay: ELISA assay to measure kinase activity of FLK-1 receptor in FLK-1/NIH cells
Assay type: cell-based, murine
Conditions: 50 ng/ml VEGF, read-out: ELISA DATA: FLK-1-(Cell.)
Description: For purposes of this application, although the nomenclature of the human and murine counterparts of the generic "flk-I" receptor differ, they are, in many respects, interchangeable. The murine receptor, FLK1, and its human counterpart, KDR, share a sequence homology of 93.4% within the intracellular domain. Likewise, murine FLK-I binds human VEGF with the same affinity as mouse VEGF, and accordingly, is activated by the ligand derived from either species. Millauer et al., 1993, Cell 72:835-846; Quinn et al., 1993, Proc. Natl. Acad. Sci. USA 90:7533-7537. FLK-1 also associates with and subsequently tyrosine phosphorylates human RTK substrates (e.g., PLC-γ or p85) when coexpressed in 293 cells (human embryonal kidney fibroblasts).
ELISA Assay To Measure Kinase Activity Of FLK-I Receptor In FLK-I/NIH Cells
An ELISA assay was conducted to measure the kinase activity of the FLK-I receptor and more specifically, the inhibition or activiation of protein tyrosine kinase activity on the FLK-I receptor.
k. N1H3T3C7#3 Cells (FLK-I infected cells);
1. Coat Corning 96-well elisa plates with 1.0 ug per well Cappel Anti-rabbit IgG antibody in 0.1M Na2CO3 pH 9.6. Bring final volume to 150 ul per well. Coat plates overnight at 4° C. Plates can be kept up to two weeks when stored at 4° C.
2. […]

T1 sequence (P35918 20-1345): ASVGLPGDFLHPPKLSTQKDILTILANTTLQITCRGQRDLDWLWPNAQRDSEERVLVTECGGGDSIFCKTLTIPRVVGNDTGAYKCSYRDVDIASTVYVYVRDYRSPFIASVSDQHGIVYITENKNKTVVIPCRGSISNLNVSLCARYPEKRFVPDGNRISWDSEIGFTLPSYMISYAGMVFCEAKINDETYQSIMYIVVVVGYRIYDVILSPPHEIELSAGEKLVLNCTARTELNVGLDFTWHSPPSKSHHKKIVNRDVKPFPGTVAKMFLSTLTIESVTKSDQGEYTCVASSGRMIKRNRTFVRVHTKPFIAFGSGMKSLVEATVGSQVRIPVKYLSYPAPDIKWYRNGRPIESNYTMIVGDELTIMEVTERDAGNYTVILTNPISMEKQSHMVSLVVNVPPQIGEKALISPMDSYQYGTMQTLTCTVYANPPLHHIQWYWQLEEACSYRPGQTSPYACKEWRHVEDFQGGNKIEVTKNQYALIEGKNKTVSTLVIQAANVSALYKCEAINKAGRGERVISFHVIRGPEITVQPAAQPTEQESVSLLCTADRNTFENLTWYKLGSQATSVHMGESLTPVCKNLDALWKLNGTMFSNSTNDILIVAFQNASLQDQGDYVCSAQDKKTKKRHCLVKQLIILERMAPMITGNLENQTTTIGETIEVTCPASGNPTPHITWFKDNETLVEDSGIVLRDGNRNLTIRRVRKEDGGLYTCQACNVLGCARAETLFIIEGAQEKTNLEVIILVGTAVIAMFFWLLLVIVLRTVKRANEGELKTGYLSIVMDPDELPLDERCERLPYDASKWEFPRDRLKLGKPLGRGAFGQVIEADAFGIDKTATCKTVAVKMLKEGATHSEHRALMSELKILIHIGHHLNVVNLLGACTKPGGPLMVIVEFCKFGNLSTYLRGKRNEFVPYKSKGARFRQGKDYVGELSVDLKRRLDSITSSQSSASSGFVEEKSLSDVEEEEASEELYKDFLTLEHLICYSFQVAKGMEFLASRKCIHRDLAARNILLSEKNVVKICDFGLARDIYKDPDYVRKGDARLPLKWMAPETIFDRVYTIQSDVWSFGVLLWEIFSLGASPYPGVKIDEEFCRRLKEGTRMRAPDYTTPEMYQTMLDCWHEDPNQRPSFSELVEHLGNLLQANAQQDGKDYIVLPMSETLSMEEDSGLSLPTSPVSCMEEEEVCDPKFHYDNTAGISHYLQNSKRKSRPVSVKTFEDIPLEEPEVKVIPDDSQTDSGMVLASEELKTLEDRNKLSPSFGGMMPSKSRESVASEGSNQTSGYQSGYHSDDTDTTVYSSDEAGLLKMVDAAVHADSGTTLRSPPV

IC50 | SMILES
< 50 µM | Cc1cc(/C=C(\C#N)S(=O)(=O)c2ccccc2)cc(C)c1O [Compound 748]
> 50 µM | CC(C)c1cc(/C=C(\C#N)S(=O)(=O)c2ccccn2)cc(C(C)C)c1O [Compound 747]

— patent US5891917A, “Certain acrylonitrile-sulfonamide derivatives” (Sugen, Inc., priority 1997, dated 1999)
